What was measured:
CD34+ cells = assay: Antagonist pretreatment and LPA-induced CD34+ cell survival in hypoxia (Annexin V/PI FACS); assay type: cell-based, human; conditions: hypoxia 24 h; for effect of antagonist on pro-survival effect of LPA: antagonist 1 h pretreatment + LPA 100 μM
Description: FIG. 5—LPA induces CD34+ cell survival mainly through peroxisome proliferator-activator receptor (PPAR). Cells were cultured in serum free medium with LPA. Cells were pretreated with Rho kinase inhibitor (Y-2762, 50 μM), mitogen-activated protein kinase (MAPK) inhibitor (PD98059, 60 μM), LPA1- and LPA3-specific inhibitor (Ki16425, 10 μM), or peroxisome proliferator-activator receptor g (PPARg) inhibitor (GW9662, 50 μM) for 1 hour before hypoxia and cell medium containing LPA (100 μM) for 24 h. Cells without any pretreatment and cultured in serum free medium with or without LPA, in hypoxia for 24 h, were used as positive and negative controls, respectively. Results are average±SEM (n=3-6). * Denote statistical significance: *P<0.05, **P<0.01, […].
The biological roles of LPA are diverse and include developmental, physiological, and pathophysiological effects (Lin, M. E., D. R. Herr, and J. Chun, Lysophosphatidic acid (LPA) receptors: signaling properties and disease relevance. Prostaglandins Other Lipid Mediat, 2010. 91(3-4): p. 130-8). To date up to five LPA receptors (LPARs) have been identified: LPA1-LPA5 (Choi, J. W., et al., LPA receptors: subtypes and biological actions. Annu Rev Pharmacol Toxicol, 2010. 50: p. 157-86). The receptors are G protein-coupled receptors (GPCRs) and their presence can be found in multiple tissues. LPA1, LPA2 and LPA3 are widely expressed in most tissues (Ishii, I., et al., Functional comparisons of the lysophosphatidic acid receptors, LP(A1)/VZG-1/EDG-2, LP(A2)/EDG-4, and LP(A3)/EDG-7 in neuronal cell lines using a retrovirus expression system. Mol Pharmacol, 2000. 58(5): p. 895-902). LP4 is expressed in specific organs, such as the pancreas, ovaries and thymus (Lee, C. W., et al., LPA(4)/GPR23 is a lysophosphatidic acid (LPA) receptor utilizing G(s)-, G(q)/G(i)-mediated calcium signaling and G(12/13)-mediated Rho activation. J Biol Chem, 2007. 282(7): p. 4310-7). LPA5 is expressed at low levels in multiple tissues (Lee, C. W., et al., GPR92 as a new G12/13- and Gq-coupled lysophosphatidic acid receptor that increases cAMP, LPA5. J Biol Chem, 2006. 281(33): p. 23589-97). To identify the receptor that is mediating the pro-survival effect of LPA (100 μM), was used Ki16425 (10 μM), an LPA1- and LPA3-specific antagonist, and GW9662 (50 μM), an antagonist of peroxisome proliferator-activator receptor γ (PPAR γ). Studies indicate that LPA has a high affinity by this last receptor (McIntyre, T. M., et al., Identification of an intracellular receptor for lysophosphatidic acid (LPA): LPA is a transcellular PPARgamma agonist. Proc Natl Acad Sci USA, 2003. 100(1): p. 131-6; Gustin, C., M. Van Steenbrugge, and M. Raes, LPA modulates monocyte migration directly and via LPA-stimulated endothelial cells. Am J Physiol Cell Physiol, 2008. 295(4): p. C905-14). This approach was complemented, by inhibiting downstream targets of the receptors including Rho kinase and mitogen-activated protein kinase (MAPK) using Y-2762 (50 μM) and PD98059 (60 μM) antagonists, respectively. It is known that all LPARs couple with and activate G proteins, which in turn activate MAPK (LPA1, LPA2, LPA3 and LPA4) and Rho kinase (LPA1, LPA2, LPA4 and LPA5) (Choi, J. W., et al., LPA receptors: subtypes and biological actions. Annu Rev Pharmacol Toxicol, 2010. 50: p. 157-86). Cells were treated for 1 h in X-Vivo medium containing a specific antagonist followed by culture under hypoxia conditions for 24 h. Cell survival was assessed by FACS analysis after Annexin V/PI staining. […] The number of viable cells decreased from 77% (+LPA) to 67% (P<0.01, n=19). […] Because the two signaling pathways are downstream targets of different LPARs (see above), this might indicate different contributions of LPARs in the survival of CD34+ cells.

[1] = tested on: human umbilical cord blood derived CD34+ cells; assay: CD34+ cell survival in hypoxia and serum deprived conditions (Annexin V/PI flow cytometry); assay type: cell-based; conditions: hypoxia 0.5% O2, 24 h, serum free; P<0.001
Description: In an embodiment, UCB CD34+ cells (1×10^^6 cells/mL) were incubated in X-Vivo media (Lonza) in a hypoxia chamber for 24 h (0.5% of O2 and 5% of CO2), in the presence or absence of pharmacological drugs, for further assessment of cell survival/apoptosis and necrosis by FACS analysis of the expression of annexin V and PI respectively. Preferably, cells were pretreated with the respective drugs for 1 hour before hypoxia, and treatment maintained during hypoxia.
In a preferred embodiment, to identify molecules that promote CD34+ cell survival in hypoxia and serum deprived conditions we developed an assay that uses human umbilical cord blood derived CD34+ cells (2×10^^5 cells per well of a 96-well plate) suspended in X-Vivo medium (used in clinical trials (Schachinger, V., et al., Intracoronary bone marrow-derived progenitor cells in acute myocardial infarction. N Engl J Med, 2006. 355(12): p. 1210-21)) and incubated in a hypoxia chamber at 0.5% O2, at 37° C., for 24 h. Some of the drugs selected have been approved by FDA for the treatment of cardiovascular diseases (e.g. Nebivolol Lombardo, R. M., et al., Effects of nebivolol versus carvedilol on left ventricular function in patients with chronic heart failure and reduced left ventricular systolic function. Am J Cardiovasc Drugs, 2006. 6(4): p. 259-63; Ibersatan Massie, B. M., et al., Irbesartan in patients with heart failure and preserved ejection fraction. N Engl J Med, 2008. 359(23): p. 2456-67), others are being evaluated in pre-clinical/clinical assays to improve heart function in patients/models with heart failure (e.g. INO1001 (Szabo, G., et al., INO-1001 a novel poly(ADP-ribose) polymerase (PARP) inhibitor improves cardiac and pulmonary function after crystalloid cardioplegia and extracorporal circulation. Shock, 2004. 21(5): p. 426-32); erythropoietin (Belonje, A. M., et al., Effects of erythropoietin after an acute myocardial infarction: rationale and study design of a prospective, randomized, clinical trial (HEBE III). Am Heart J, 2008. 155(5): p. 817-22); melatonin (Chen, Z., et al., Protective effect of melatonin on myocardial infarction. Am J Physiol Heart Circ Physiol, 2003. 284(5): p. H1618-24); VX-702 (Ma, X. L., et al., Inhibition of p38 mitogen-activated protein kinase decreases cardiomyocyte apoptosis and improves cardiac function after myocardial ischemia and reperfusion. Circulation, 1999. 99(13): p. 1685-91)), others are natural substances found in the human body (LPA). Cell viability was evaluated by flow cytometry using Annexin V/propidium iodide (PI) staining. Annexin V is a phospholipid-binding protein with specificity for phospatidyl serine, one of the earliest makers of cellular transition to an apoptotic state. This phospholipid is translocated from the inner to the outer leaflet of the plasma membrane (Koopman, G., et al., Annexin V for flow cytometric detection of phosphatidylserine expression on B cells undergoing apoptosis. Blood, 1994. 84(5): p. 1415-20.). PI enters in necrotic cells and binds to double-stranded nucleic acids, but is excluded from cells with normal integrity. According to FIG. 1, untreated CD34+ cells show a very poor survival, with only ˜31% of viable cells, ˜31% of apoptotic cells (Annexin V+/PI−) being the majority of the cells ˜39% at the necrotic stage (PI+). […] LPA (10 μM) was the drug with the highest pro-survival effect (˜69% of viable cells) and therefore further studied (FIGS. 1 and 2A).
Importantly, the percentage of viable cells in CD34+ treated with 1 μM of LPA and cultured under hypoxia conditions is similar to untreated cells cultured under normoxia conditions. The pro-survival effect of LPA decreases as a function of hypoxia time (FIG. 2C). The percentage of viable cells in LPA-treated CD34+ cells decreased from 78% at day 1 to 40% at day 3.

Structure (SMILES)	number of viable cells induced by LPA after antagonist (CD34+ cells; Ki16425 10 μM 1 h pretreatment + LPA 100 μM, P<0.01, n=19)	effect of antagonist on pro-survival effect of LPA (CD34+ cells)	number of viable cells induced by LPA after antagonist (CD34+ cells; GW9662 50 μM 1 h pretreatment + LPA 100 μM, P<0.001, n=11)	cell survival vs untreated cells [1]
Cc1noc(-c2ccc(CSCCC(=O)O)cc2)c1NC(=O)OC(C)c1ccccc1Cl (stereo not drawn) [Ki16425]	67%	relatively small effect		
COc1cccc(-c2cc(=O)c3ccccc3o2)c1N [PD98059]		suppressed at higher levels the pro-survival effect of LPA than the inhibition of Rho kinase signaling pathway		
O=C(Nc1ccccc1)c1cc([N+](=O)[O-])ccc1Cl [GW9662]		did not block totally the pro-survival effect of LPA	~53%	
CCCCC[C@H](O)/C=C/[C@H]1[C@H](O)CC(=O)[C@@H]1C/C=C\CCCC(=O)O [prostaglandin E2, reference compound]				improved significantly

Reference: patent US9868935B2, “Composition and method of stem cells for preservation of cardiac tissue” (CRIOESTAMINAL, SAÚDE E TECNOLOGIA, SA., priority 2012, dated 2018)
